Measured values: patent US8927717B1, “Thiochromeno[2,3-c]quinolin-12-one derivatives, preparation method and application thereof” (National Defense Medical Center, priority 2014, dated 2015)

What was measured:
A549/ATCC = format: cell-based; details: A549/ATCC
SF-539 = format: cell-based; details: SF-539
OVCAR-4 = format: cell-based; details: OVCAR-4
HS 578T = format: cell-based; details: HS 578T
SN12C = format: cell-based; details: SN12C
OVCAR-5 = format: cell-based; details: OVCAR-5
TOP I (Topoisomerase I) [1] = target: T1, TOP I (Topoisomerase I) (Homo sapiens, UniProt P11387); assay: TOP I mediated supercoiled DNA relaxation assay; format: biochemical; details: primary assay at 25 and/or 50 μM
T1 construct: purchased TopoGEN TG2005H
T1 sequence (P11387 1-765): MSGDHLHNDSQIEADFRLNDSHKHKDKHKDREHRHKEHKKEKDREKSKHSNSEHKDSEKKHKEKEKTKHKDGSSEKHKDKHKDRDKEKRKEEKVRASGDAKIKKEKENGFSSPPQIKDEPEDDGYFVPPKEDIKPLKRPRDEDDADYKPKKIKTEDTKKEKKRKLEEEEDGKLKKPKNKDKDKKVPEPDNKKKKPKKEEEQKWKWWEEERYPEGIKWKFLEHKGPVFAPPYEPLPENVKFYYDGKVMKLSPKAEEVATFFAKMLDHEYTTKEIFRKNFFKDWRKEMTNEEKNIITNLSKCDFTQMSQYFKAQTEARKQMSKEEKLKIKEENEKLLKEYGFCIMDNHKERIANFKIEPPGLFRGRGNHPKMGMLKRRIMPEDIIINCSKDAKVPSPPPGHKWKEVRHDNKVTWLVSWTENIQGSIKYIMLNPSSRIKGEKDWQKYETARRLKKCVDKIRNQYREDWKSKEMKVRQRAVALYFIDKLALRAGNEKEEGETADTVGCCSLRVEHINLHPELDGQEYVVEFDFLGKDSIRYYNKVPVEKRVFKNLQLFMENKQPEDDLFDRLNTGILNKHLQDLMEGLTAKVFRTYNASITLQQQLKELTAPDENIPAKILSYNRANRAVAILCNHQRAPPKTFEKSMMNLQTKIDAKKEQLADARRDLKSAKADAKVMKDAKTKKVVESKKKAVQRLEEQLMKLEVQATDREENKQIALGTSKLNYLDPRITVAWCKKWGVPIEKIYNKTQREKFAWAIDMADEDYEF
Protocol: According to the cell cytotoxicity, compounds 5, 7, 8, 16, 19, N2, N7, N8, N9, N14-N19, and N25 were also selected for primary TOP I and II activities assays at 25 and/or 50 μM (FIG. 2-4).

CCRF-CEM = format: cell-based; details: CCRF-CEM
UACC-257 = format: cell-based; details: UACC-257
HOP-92 = format: cell-based; details: HOP-92, five dose
SK-MEL-2 = format: cell-based; details: SK-Mel-2, five dose
BT-549 = format: cell-based; details: BT-549
SNB-75 = format: cell-based; details: SNB-75
UO-31 = format: cell-based; details: UO-31
DU-145 = format: cell-based; details: DU-145
SF-295 = format: cell-based; details: SF-295
HCC-2998 = format: cell-based; details: HCC-2998
TOP I (Topoisomerase I) [2] = target: T1, TOP I (Topoisomerase I); assay: TOP I mediated supercoiled DNA relaxation assay; format: biochemical; details: five different concentrations; TopoGEN TG2005H, TG-2000H-1
HCT-15 = format: cell-based; details: HCT-15
OVCAR-3 = format: cell-based; details: OVCAR-3; 10^−5 molar
CAKI-1 = format: cell-based; details: CAKI-1
IGROV1 = format: cell-based; details: IGROV1
[3] = Homo sapiens, five dose, read-out: LC50 (the source's name)

With `O=c1c2cc(Cl)ccc2sc2c(NCc3ccccc3)nc3ccccc3c12` [Compound N25, 6-(Benzylamino)-10-chloro-12H-thiochromeno[2,3-c]quinolin-12-one] the Growth percent (A549/ATCC; 10^−5 molar) was 68.33%, the TGI (A549/ATCC; five dose) was >100 µM and the GI50 (A549/ATCC; Homo sapiens, five dose) was 14.4 µM. The LC50 (A549/ATCC; Homo sapiens, five dose) was > 100 µM, the GI50 (SF-539; Homo sapiens, five dose) was 4.49 µM and the LC50 (SF-539; Homo sapiens, five dose) was > 100 µM. It also gave a Growth percent (SF-539; 10^−5 molar) of 80.59%, a TGI (SF-539; five dose) of 46.40 µM and a GI50 (OVCAR-4; Homo sapiens, five dose) of 15 µM. It also gave a Growth percent (OVCAR-4; 10^−5 molar) of 27.24%, a TGI (OVCAR-4; five dose) of 3.74 µM and a Growth percent (HS 578T; 10^−5 molar) of 34.73%. The TGI (HS 578T; five dose) was 21.20 µM, the GI50 (HS 578T; Homo sapiens, five dose) was 2.94 µM and the CC50 (HS 578T; [3]) was > 100 µM. For the same compound, the GI50 (SN12C; Homo sapiens, five dose) was 24.9 µM, the CC50 (SN12C; [3]) was > 100 µM and the Growth percent (SN12C; 10^−5 molar) was 87.80%. For the same compound, the TGI (SN12C; five dose) was >100 µM, the GI50 (OVCAR-5; Homo sapiens, five dose) was > 100 µM and the CC50 (OVCAR-5; [3]) was > 100 µM. The Growth percent (OVCAR-5; 10^−5 molar) was 91.27%, the TGI (OVCAR-5; five dose) was >100 µM and the “inhibitory effect in TOP I activity assay compared with CPT” value (TOP I (Topoisomerase I) [1]) was “more potent inhibitory effects than CPT”. For the same compound, the Growth percent (CCRF-CEM; 10^−5 molar) was 102.34%, the TGI (CCRF-CEM; five dose) was >100 µM and the GI50 (CCRF-CEM; Homo sapiens, five dose) was > 100 µM. For the same compound, the CC50 (CCRF-CEM; [3]) was > 100 µM, the GI50 (UACC-257; Homo sapiens, five dose) was > 100 µM and the CC50 (UACC-257; [3]) was > 100 µM. The Growth percent (UACC-257; 10^−5 molar) was 83.24%, the TGI (UACC-257; five dose) was >100 µM and the TGI (HOP-92) was 7.53 µM. The GI50 (HOP-92; Homo sapiens) was 1.75 µM, the LC50 (HOP-92; Homo sapiens) was 53.6 µM and the GI50 (SK-MEL-2; Homo sapiens) was 10.6 µM. It also gave an LC50 (SK-MEL-2; Homo sapiens) of 96.5 µM, a TGI (SK-MEL-2) of 31.90 µM and a Growth percent (BT-549; 10^−5 molar) of 97.19%. The TGI (BT-549; five dose) was >100 µM, the GI50 (BT-549; Homo sapiens, five dose) was 20.5 µM and the CC50 (BT-549; [3]) was > 100 µM. For the same compound, the GI50 (SNB-75; Homo sapiens, five dose) was 1.45 µM, the LC50 (SNB-75; Homo sapiens, five dose) was 9.91 µM and the Growth percent (SNB-75; 10^−5 molar) was 14.83%. The TGI (SNB-75; five dose) was 3.78 µM, the GI50 (UO-31; Homo sapiens, five dose) was 57.8 µM and the CC50 (UO-31; [3]) was > 100 µM. The Growth percent (UO-31; 10^−5 molar) was 65.31%, the TGI (UO-31; five dose) was >100 µM and the Growth percent (DU-145; 10^−5 molar) was 74.80%. The TGI (DU-145; five dose) was >100 µM, the GI50 (DU-145; Homo sapiens, five dose) was 5.5 µM and the CC50 (DU-145; [3]) was > 100 µM. The GI50 (SF-295; Homo sapiens, five dose) was 3.5 µM, the LC50 (SF-295; Homo sapiens, five dose) was > 100 µM and the Growth percent (SF-295; 10^−5 molar) was 74.33%. The TGI (SF-295; five dose) was 16.50 µM, the Growth percent (HCC-2998; 10^−5 molar) was 95.77% and the TGI (HCC-2998; five dose) was >100 µM. The GI50 (HCC-2998; Homo sapiens, five dose) was > 100 µM, the LC50 (HCC-2998; Homo sapiens, five dose) was > 100 µM and the IC50 (TOP I (Topoisomerase I) [2]) was ~25 µM. For the same compound, the Growth percent (HCT-15; 10^−5 molar) was 71.76%, the TGI (HCT-15; five dose) was >100 µM and the GI50 (HCT-15; Homo sapiens, five dose) was 8.75 µM. For the same compound, the LC50 (HCT-15; Homo sapiens, five dose) was > 100 µM, the Growth percent (OVCAR-3) was 76.59% and the Growth percent (CAKI-1; 10^−5 molar) was 80.38%. The TGI (CAKI-1; five dose) was >100 µM, the GI50 (CAKI-1; Homo sapiens, five dose) was 6.07 µM and the CC50 (CAKI-1; [3]) was > 100 µM. The GI50 (IGROV1; Homo sapiens, IGROV-1, five dose) was 4.64 µM, the CC50 (IGROV1; Homo sapiens, IGROV-1, five dose, read-out: LC50 (the source's name)) was > 100 µM and the Growth percent (IGROV1; 10^−5 molar) was 53.42%. For the same compound, the TGI (IGROV1; five dose) was >100 µM.
